Drawing on patent US10808007B2, “Desacetoxytubulysin H and analogs thereof” (WILLIAM MARSH RICE UNIVERSITY, priority 2015, dated 2020), this text covers GI50 and IC50 for twelve molecules.

Type in all cases: cell-based
The test system of one experiment is CNS cancer cell lines. The experiment is described as follows: NCI-60 cytotoxicity, CNS cancer. Conditions: Homo sapiens; NCI-60, selected value. As for the experimental part:
(§1) A number of the synthesized compounds (i.e. Tb1-Tb23) were evaluated for their activity against a variety of cancer cell lines, namely the NCI-60 human cancer cell line panel representing leukemia, melanoma, lung, colon, brain, ovary, breast, prostate and kidney types of cancer through the In Vitro Cell Line Screening Project (IVCLSP) of the National Cancer Institute (NCI), and a summary of the results is shown in Table 1. […] As there was interest in the activity in certain other cell lines, these and the remaining compounds (Tb1-Tb41, PTb-D42 and PTb-D43) were subjected to further testing against MES SA (uterine sarcoma cells), MES SA DX (multidrug resistant uterine sarcoma cells), and HEK 293T (human embryonic kidney cells). […] Tubulysins are known to be substrates for Pgp pumps (Xiangming, et al., 2013; Kaur, et al., 2006; Szakacs, et al., 2006) as supported by the observed low activities of all tubulysins tested except Tb28, Tb32 and Tb33.

In experiment [1] the test system is MES SA DX (multidrug resistant uterine sarcoma cells). The experiment is described as follows: Cytotoxic assay (CellTiter-Glo, 72 h), MES SA DX. Conditions: Homo sapiens.
For experiment [2], the system named is MES SA (uterine sarcoma cells). Nature of the experiment: Cytotoxic assay (CellTiter-Glo, 72 h), MES SA. Conditions: Homo sapiens, MES-SA, read-out: IC50 MES SA. In general terms: Cellular ATP, detected with luciferase, serves as a proxy for viable cell number.
A further experiment deals with colon cancer cell lines. The experiment is described as follows: NCI-60 cytotoxicity, colon cancer. As to conditions: Homo sapiens; NCI-60, selected value. On the procedure:
as §1

Experiment [3] relates to ovarian cancer cell lines. Nature of the experiment: NCI-60 cytotoxicity, ovarian cancer. Conditions: Homo sapiens; NCI-60, selected value. On the procedure: as §1
The test system of experiment [4] is non-small cell lung cancer cell lines. The experiment is described as follows: NCI-60 cytotoxicity, non-small cell lung cancer. Conditions: Homo sapiens; NCI-60, selected value. As for the experimental part:
as §1

Experiment [5] concerns prostate cancer cell lines. The experiment is described as follows: NCI-60 cytotoxicity, prostate cancer. Conditions: Homo sapiens; NCI-60, selected value. On the procedure:
as §1

In another experiment the test system is renal cancer cell lines. Nature of the experiment: NCI-60 cytotoxicity, renal cancer. As to conditions: Homo sapiens; NCI-60, selected value. On the procedure: as §1
For a further experiment, the system named is breast cancer cell lines. The experiment is described as follows: NCI-60 cytotoxicity, breast cancer. Conditions: Homo sapiens; NCI-60, selected value. As for the experimental part:
as §1

In experiment [6] the test system is HEK 293T (human embryonic kidney cells). The experiment is described as follows: Cytotoxic assay (CellTiter-Glo, 72 h), HEK 293T. As to conditions: Homo sapiens, HEK-293T, read-out: IC50 HEK 293T.
The test system of a further experiment is melanoma cell lines. Nature of the experiment: NCI-60 cytotoxicity, melanoma. As to conditions: Homo sapiens; NCI-60, selected value. As for the experimental part:
as §1

Experiment [7] relates to leukemia cancer cell lines. The experiment is described as follows: NCI-60 cytotoxicity, leukemia. Conditions: Homo sapiens; NCI-60, selected value. On the procedure: as §1

Like-named read-outs stand apart in the source and are kept apart here.

Consider `CC[C@H](C)[C@H](NC(=O)C12C3C4C1C1C2C3C41NC)C(=O)N(C)[C@H](C[C@@H](OC(C)=O)c1nc(C(=O)N[C@@H](Cc2ccccc2)C[C@H](C)C(=O)OC)cs1)C(C)C` (stereo partly drawn) [Tb10, Methyl(2S,4R)-4-(2-((1R,3R)-1-acetoxy-3-((2S,3S)—N,3-dimethyl-2-(4-(methylamino)cubane-1-carboxamido)pentanamido)-4-methylpentyl)thiazole-4-carboxamido)-2-methyl-5-phenylpentanoate], for which the GI50 in the experiment with CNS cancer cell lines stood at 271 nM; in the experiment with colon cancer cell lines it was 355 nM; in [3] it was 92.6 nM; in [4], 60.2 nM; in experiment [5], 500 nM; with renal cancer cell lines, 413 nM. Also, the GI50 in the experiment with breast cancer cell lines turned out to be 66.4 nM; in the experiment with melanoma cell lines it was 49.5 nM; in experiment [7], 61.3 nM. The IC50 in [1], in experiment [2] (72 h) and in experiment [6] (72 h) was over 50 nM in each case.
For the molecule `CC[C@H](C)[C@H](NC(=O)[C@H]1CCCCN1C)C(=O)N(C)[C@H](C[C@@H](OC(C)=O)c1nc(C(=O)N[C@@H](Cc2ccccc2)C[C@H](C)C(=O)O)cs1)C(C)C` [Tb1, N^14-desacetoxytubulysin H], the GI50 turned out to be 0.305 nM in the experiment on CNS cancer cell lines; 0.269 nM in the experiment on colon cancer cell lines; 0.234 nM in experiment [3]; 0.347 nM in experiment [4]; 0.339 nM in [5]; 0.548 nM with renal cancer cell lines. Besides, the GI50 in the experiment with breast cancer cell lines stood at 0.147 nM; with melanoma cell lines it was 0.074 nM; in experiment [7] it was 0.264 nM. The IC50 in experiment [1] was over 10 nM; in experiment [2] (72 h), 0.34 nM; in experiment [2] it was 0.34 nM; in experiment [6] (72 h) it was 0.02 nM; in [6], 0.02 nM.
Consider `CC[C@H](C)[C@H](NC(=O)Nc1ccccc1)C(=O)N(C)[C@H](C[C@@H](OC(C)=O)c1nc(C(=O)N[C@@H](Cc2ccccc2)C[C@H](C)C(=O)OC)cs1)C(C)C` [Tb5, (2S,4R)-Methyl 4-(2-((1R,3R)-1-acetoxy-3-((2S,3S)—N,3-dimethyl-2-(3-phenylureido)pentanamido)-4-methylpentyl)thiazole-4-carboxamido)-2-methyl-5-phenylpentanoate], for which the GI50 (with CNS cancer cell lines; in the experiment with colon cancer cell lines; in experiment [3]; in experiment [4]; in experiment [5]; with renal cancer cell lines) was over 1000 nM throughout. The GI50 was 514 nM with breast cancer cell lines, 416 nM with melanoma cell lines and over 1000 nM in [7]. In addition, the IC50 in [1], in experiment [2] (72 h) and in experiment [6] (72 h) was over 50 nM throughout.
For the molecule `CC[C@H](C)[C@H](NC(=O)c1ccccn1)C(=O)N(C)[C@H](C[C@@H](OC(C)=O)c1nc(C(=O)N[C@@H](Cc2ccccc2)C[C@H](C)C(=O)OC)cs1)C(C)C` [Tb3, (2S,4R)-Methyl 4-(2-((1R,3R)-1-acetoxy-3-((2S,3S)—N,3-dimethyl-2-(picolinamido)pentanamido)-4-methylpentyl)thi-azole-4-carboxamido)-2-methyl-5-phenylpentanoate], the GI50 (in the experiment with CNS cancer cell lines; in the experiment on colon cancer cell lines; in experiment [3]; in experiment [4]; in experiment [5]; in the experiment on renal cancer cell lines) was over 1000 nM throughout. The GI50 (in the experiment with breast cancer cell lines; in the experiment with melanoma cell lines; in experiment [7]) was over 1000 nM each time. Besides, the IC50 in experiment [1], in experiment [2] (72 h) and in experiment [6] (72 h) was over 50 nM throughout.
As to `CC[C@H](C)[C@H](NC(=O)NC(C)(C)C)C(=O)N(C)[C@H](C[C@@H](OC(C)=O)c1nc(C(=O)N[C@@H](Cc2ccccc2)C[C@H](C)C(=O)OC)cs1)C(C)C` [Tb6, Methyl (2S,4R)-4-(2-((6S,9R,1R)-6-((S)-sec-butyl)-9-isopropyl-2,2,8-trimethyl-4,7,13-trioxo-12-oxa-3,5,8-triazatetradecan-11-yl)thiazole-4-carboxamido)-2-methyl-5-phenylpentanoate], the GI50 in the experiment with CNS cancer cell lines was 439 nM; with colon cancer cell lines it was 339 nM; in [3], 127 nM; in [4], 164 nM; in experiment [5], 689 nM; in the experiment on renal cancer cell lines, 154 nM. Besides, the GI50 in the experiment on breast cancer cell lines was determined as 71.4 nM; in the experiment on melanoma cell lines it was 83.9 nM; in experiment [7], 286 nM. Also, the IC50 in [1], in [2] (72 h) and in experiment [6] (72 h) was over 50 nM throughout.
Turning to `CC[C@H](C)[C@H](NC(=O)c1ncccn1)C(=O)N(C)[C@H](C[C@@H](OC(C)=O)c1nc(C(=O)N[C@@H](Cc2ccccc2)C[C@H](C)C(=O)OC)cs1)C(C)C` [Tb34, (2S,4R)-methyl 4-(2-((1R,3R)-1-acetoxy-3-((2S,3S)—N,3-dimethyl-2-(pyrimidine-2-carboxamido)pentanamido)-4-methylpentyl)thiazole-4-carboxamido)-2-methyl-5-phenylpentanoate], the IC50 in experiment [1] was over 1000 nM; in experiment [2] (72 h), over 1000 nM; in experiment [6] (72 h), over 500 nM.
Consider `COC(=O)[C@@H](C)C[C@H](Cc1ccccc1)NC(=O)c1csc([C@@H](C[C@H](C(C)C)N(C)C(=O)C2(NC(=O)[C@H]3CCCCN3C)CC2)OC(C)=O)n1` [Tb27, (2S,4R)-Methyl 4-(2-((1R,3R)-1-acetoxy-4-methyl-3-(N-methyl-1-((R)-1-methylpiperidine-2-carboxamido)cyclopropanecarboxamido)pentyl)thiazole-4-carboxamido)-2-methyl-5-phenylpentanoate], for which the IC50 was over 100 nM in experiment [1], 2.46 nM in experiment [2] (72 h) and 1.96 nM in [6] (72 h).
As for `CC[C@H](C)[C@H](NC(=O)c1cnccn1)C(=O)N(C)[C@H](C[C@@H](OC(C)=O)c1nc(C(=O)N[C@@H](Cc2ccccc2)C[C@H](C)C(=O)OC)cs1)C(C)C` [Tb35, (2S,4R)-methyl 4-(2-((1R,3R)-1-acetoxy-3-((2S,3S)—N,3-dimethyl-2-(pyrazine-2-carboxamido)pentanamido)-4-methylpentyl)thiazole-4-carboxamido)-2-methyl-5-phenylpentanoate], the results for the IC50 in [1], in experiment [2] (72 h) and in [6] (72 h) were over 1000 nM, over 1000 nM and over 500 nM, respectively.
On to `CC[C@H](C)[C@H](NC(=O)[C@H]1CCCCN1C)C(=O)N(C)[C@H](C[C@@H](OC(C)=O)c1cccc(C(=O)N[C@@H](Cc2ccccc2)C[C@H](C)C(=O)OC)n1)C(C)C` [Tb38, Methyl (2S,4R)-4-(6-((1R,3R)-1-acetoxy-3-((2S,3S)—N,3-dimethyl-2-((R)-1-methylpiperidine-2-carboxamido)pentanamido)-4-methylpentyl)picolinamido)-2-methyl-5-phenylpentanoate], for which the IC50 in experiment [1] is under 500 nM; in experiment [2] (72 h), 0.357 nM; in experiment [2] it was 0.357 nM; in experiment [6] (72 h) it was 0.574 nM; in experiment [6], 0.574 nM.
As to `COC(=O)[C@@H](C)C[C@H](Cc1ccccc1)NC(=O)c1csc([C@@H](C[C@H](C(C)C)N(C)C(=O)[C@@H](NC(=O)[C@H]2CCCN2C)C2CC2)OC(C)=O)n1` [Tb26, (2S,4R)-Methyl 4-(2-((1R,3R)-1-acetoxy-3-((S)-2-cyclopropyl-N-methyl-2-((R)-1-methylpyrrolidine-2-carboxamido)acetamido)-4-methylpentyl)thiazole-4-carboxamido)-2methyl-5-phenylpentanoate], the IC50 in experiment [1] is over 100 nM; in [2] (72 h), 0.2 nM; in experiment [2] it was 0.2 nM; in experiment [6] (72 h) it was 0.12 nM; in experiment [6], 0.12 nM.
As for `COC(=O)[C@@H](C)C[C@H](Cc1ccc(F)cc1)NC(=O)c1csc([C@@H](C[C@H](C(C)C)N(C)C(=O)[C@@H](NC(=O)[C@H]2CCCCN2C)C(C)C)OC(C)=O)n1` [Tb40, Methyl(2S,4R)-4-(2-((1R,3R)-1-acetoxy-3-((S)—N,3-dimethyl-2-((R)-1-methylpiperidine-2-carboxamido)butanamido)-4-methylpentyl)thiazole-4-carboxamido)-5-(4-fluorophenyl)-2-methylpentanoate], the IC50 in experiment [1] is over 1000 nM; in [2] (72 h), 15.6 nM; in experiment [6] (72 h), over 1000 nM.
Regarding `CC(=O)O[C@H](C[C@H](C(C)C)N(C)C(=O)[C@@H](NC(=O)[C@H]1CCCCN1C)C1CC1)c1nc(C(=O)N[C@@H](Cc2ccccc2)C[C@H](C)C(=O)O)cs1` [Tb30, (2S,4R)-4-(2-((1R,3R)-1-Acetoxy-3-((S)-2-cyclopropyl-N-methyl-2-((R)-1-methylpiperidine-2-carboxamido)acetamido)-4-methylpentyl)thiazole-4-carboxamido)-2-methyl-5-phenylpentanoic Acid], the results for the IC50 in [1], in [2] (72 h) and in experiment [6] (72 h) were over 100 nM, 4.09 nM and 0.35 nM, respectively.

A word on the GI50: it is the concentration that inhibits growth by half. A lower GI50 goes with more potent growth inhibition. The IC50 is the concentration that gives 50% inhibition.
